pIC50: −log10 of the molar value.
Test: Antagonist activity against CRTh2 receptor in human eosinophils assessed as cell shape change

## N#C/C(=C\c1cn(CC(=O)O)c2ccccc12)C(=O)N1CCCc2ccccc21
  pIC50: 6.80
